Assay results published in patent US11931341B2, “Compositions and methods for the treatment and prevention of muscular dystrophy” (University of Iowa Research Foundation, priority 2018, dated 2024).

Columns and labels:
Format in all cases: in vivo
δSgcd−/− mouse model [1] = assay: Autonomic function by radiotelemetry in δSgcd−/− mouse model of limb-girdle muscular dystrophy; details: Sgcd−/− mice, C21 0.03 mg/kg/day SC osmotic minipump for eight weeks
Protocol: (§1) The effect of C21 was evaluated in a δSgcd−/− mouse model, which is a genetically modified model to imitate limb-girdle muscular dystrophy (LGMD). At 3 weeks of age, δSgcd−/− mice and control mice were administrated C21 (0.03 mg/kg/day, osmotic minipump, SC) or vehicle for eight weeks. Data from conscious mice were collected during the last week of treatment. At the end of the experiment, tissues were harvested for histopathology and molecular gene expression measurements.
(§2) A radiotelemetry probe (PC10-DSI) that enabled measurement of arterial blood pressure (BP), heart rate (HR) and locomotor activity was inserted into the thoracic aorta through the left common carotid artery under 2% isoflurane anesthesia when the mice were 9 weeks of age. When the mice reached 11-12 weeks of age, changes in BP, HR, and locomotor activity were measured over a minimum of 24 hours at a sampling rate of 500 Hz. In addition, BP was continuously recorded at a high sampling frequency of 2000 Hz for 1-2 hours, to collect data for assessment of spontaneous baroreflex sensitivity (sequence technique), sympathetic tone (HR changes with propranolol) and vagal tone (HR changes with methylatropine).

δSgcd−/− mouse model [2] = assay: Spontaneous locomotor activity by radiotelemetry in δSgcd−/− mouse model; details: sgcd−/− mice, C21 0.03 mg/kg/day SC osmotic minipump for eight weeks (FIG. 2)
Protocol: as §1, §2

δSgcd−/− mouse model [3] = assay: Cardiac function by echocardiography in δSgcd−/− mouse model; details: older-aged sgcd−/− mice, echocardiography (FIG. 3)
Protocol: as §1, with “At 3 weeks of age, δSgcd−/− mice and control mice were administrated C21 (0.03 mg/kg/day, osmotic minipump, SC) or vehicle for eight weeks.” left out
Echocardiography was performed in telemeter-implanted mice using Philips Sonos 5500 clinical imager in mice sedated with midazolam.

For `CCCCOC(=O)NS(=O)(=O)c1sc(CC(C)C)cc1-c1ccc(Cn2ccnc2)cc1` [Compound C21, N-butyloxycarbonyl-3-(4-imidazol-1-ylmethylphenyl)-5-iso-butylthiophene-2-sulfonamide], the baroreflex sensitivity (δSgcd−/− mouse model [1]; compared to sgcd−/− placebo treated mice (FIG. 1)) was “increase”, the vagal tone (δSgcd−/− mouse model [1]; compared to sgcd−/− placebo treated mice, HR changes with methylatropine (FIG. 1)) was “increase” and the sympathetic tone (δSgcd−/− mouse model [1]; compared to sgcd−/− placebo treated mice, HR changes with propranolol (FIG. 1)) was “decreased”. For the same compound, the spontaneous locomotor activity (δSgcd−/− mouse model [2]) was “increased the spontaneous locomotor activity to levels comparative to control animals” and the “cardiac function measured as end diastolic volume, end systolic volume and ejection fraction” value (δSgcd−/− mouse model [3]) was “improved the cardiac function”.
